The results in this text go back to patent US7361743B2 (Pfizer Inc, priority 2004, dated 2008).

One assay concerns Haemophilus influenzae. The experiment in a line: Susceptibility testing, NCCLS microdilution MIC. It counts as cell-based. The conditions noted are these: Haemophilus influenzae, ATCC31517; H. influenzae ATCC 31517; Example A′; read-out: MIC H. influenzae.
The subject of the next assay is Enterococcus faecalis. Kind of assay: Susceptibility testing, NCCLS microdilution MIC. It counts as cell-based. The conditions noted are these: Enterococcus faecalis, ATCC29212; E. faecalis ATCC 29212; Example A′; read-out: MIC E. faecalis. Background: Dilution methods test growth across graded concentrations, often in twofold steps.
The next assay has as its system Bacteroides fragilis. Kind of assay: Susceptibility testing, NCCLS microdilution MIC (anaerobe). The format is cell-based. As to conditions: Bacteroides fragilis, ATCC25285; B. fragilis ATCC 25285; Example A′; read-out: MIC B. fragilis.
Another assay has as its system Staphylococcus aureus. Kind of assay: Susceptibility testing, NCCLS microdilution MIC. As to conditions: ATCC25923, S. aureus ATCC 25923, Example A′, read-out: MIC S. aureus. The format is cell-based.
For assay [1], the system named is E. coli transcription/translation (bacterial protein synthesis, E. coli S30 extract). The experiment in a line: In vitro inhibition of E. coli transcription and translation assay (TT), cell-free. It counts as biochemical. As to conditions: for IC50: cell-free E. coli S30 extract; for In vitro inhibition of E. coli transcription and translation compared with literature azepine compound VIII(18): cell-free TT assay, comparison in words. As for the experimental part:
Inhibition of bacterial protein synthesis was assayed in a cell-free E. coli transcription/translation assay.
Stock solutions of compounds were prepared at 10 mg/mL in DMSO. The assay contained less or equal to 1% (v/v) final concentration of DMSO. Three-fold serial dilutions were prepared in assay buffer at 6-fold final concentration in 96 well microtiter plate.
All vials, tubes and microtiter plates are RNase free. The Mix was freshly prepared with 10 μl H2O, 10 μl AA-M, 10 μl AA-L, 80 μl Premix and 50 μl ES30 extract. The assay was performed in a 96-well plate. Five microliters of compounds at various concentrations (6-fold final assay concentration) were preincubated with 20 μl of the mix for 5 min at room temperature. The reaction started with addition of 5 μl of plasmid (˜0.1 mg/mL pGEMBGAL), and kept at 37° C. for 1 h followed by the addition of 150 μl of OPNG solution (4 mg/mL OPNG in 0.1M NaPi, pH 7.5, 1 mM MgCl2 and 2 mM DTT). 150 μl of the reaction was transferred to a ½-area plate and increase in absorption at OD420 nm was monitored for 10 min using a Spectramax plate reader (Molecular Devices). The slope of absorption change over time is corresponding to the pathway activity.
The E. coli S30 Extract for circular DNA kit was purchased from Promega. Original plasmid pGEMBGAL was obtained from Promega and amplified via Maxiprep in house. 2-Nitrophenyl β-D-galactopyranoside was obtained from Sigma. Clindamycin HCl (USP) was purchased from Spectrum.
The inhibition are expressed as percent of control activity (without inhibitor) which is calculated according to equation (1): Inhibition %=(compound slope-blank slope)/(control slope-blank slope)*100 (1)
All IC50s were determined by fitting the experimental data to equation (2) using software DeltaGraph (DeltaPoint Inc.): Y=Y0/(1+(X/IC50)[…])+c (2)
Where Y: activity at given inhibitor concentration; Y0: activity without inhibitor; X: inhibitor concentration; d: slope; c: constant.
Lincosamides inhibit bacterial growth through binding to the bacterial 50S ribosome, thus inhibiting peptide bond formation. The transcription/translation assay provides a screening tool to measure inhibition of bacterial protein synthesis pathway at the target level without the complication of differences in membrane permeability.

Assay [2] deals with Staphylococcus aureus Smith. Kind of assay: Efficacy in murine S. aureus septicemia. It counts as in vivo, ICR mice. The conditions noted are these: for Efficacy in the murine S. aureus septicemia model relative to clindamycin: IV route of administration, compound given 1 hour after inoculation; for Efficacy in the murine S. aureus septicemia model relative to clindamycin / Efficacy in the murine S. aureus septicemia model by oral route: mice; for ED50: Staphylococcus aureus, murine S. aureus Smith septicemia, dosed 1 hour after inoculation, mortality 7 days; for Efficacy in the murine S. aureus septicemia model by oral route: oral route of administration. As for the experimental part: (§1) Efficacy studies were performed in an S. aureus murine septicemia model according to models published elsewhere (Goldstein, B. P., G. Candiani, T. M. Arain, G. Romano, I. Ciciliato, M. Berti, M. Abbondi, R. Scotti, M. Mainini, F. Ripamonti, and et al. 1995. Antimicrobial activity of MDL 63,246, a new semisynthetic glycopeptide antibiotic Antimicrob. Agents Chemother. 39:1580-1588; Misiek, M., T. A. Pursiano, F. Leitner, and K. E. Price 1973. Microbiological properties of a new cephalosporin, BL-S 339:7-(phenylacetimidoyl-aminoacetamido)-3-(2-methyl-1,3,4-thiadiazol-5-ylthio methyl)ceph-3-em-4-carboxylic acid Antimicrob. Agents Chemother. 3:40-48).
Compounds were dissolved in 2% Tween 80 for oral dosing or 0.9% NaCl solution for intravenous dosing. Compounds were administered at 1 hour after bacterial inoculation. Vancomycin or ampicillin were used as controls.
Male or female ICR mice weighing 22±2 g from MDS Pharma Services were used for the evaluation. Food and water was given ad libitum. Groups of 6 mice weighing […] were used for the experiment. Mice were inoculated intraperitoneally with Staphylococcus aureus Smith at 4 104 CFU in 0.5 ml of Brain Heart Infusion Broth (Difco) containing 5% mucin (Sigma). Mortality was recorded once daily for 7 days following bacterial inoculation.
as §1, with “39:1580-1588.;” for “39:1580-1588;”, “339: 7-(phenylacetimidoyl-aminoacetamido)-3-(2-methyl-1,3,4-thiadiazol-5-ylthio” for “339:7-(phenylacetimidoyl-aminoacetamido)-3-(2-methyl-1,3,4-thiadiazol-5-ylthio”
Male or female ICR mice weighing 22±2 g from MDS Pharma Services were used for the evaluation. Food and water was given ad libitum. Groups of 6 mice weighing […] were used for the experiment. Mice were inoculated intraperitoneally with Staphylococcus aureus Smith at 4 104 CFU in 0.5 mL of Brain Heart Infusion Broth (Difco) containing 5% mucin (Sigma). Mortality was recorded once daily for 7 days following bacterial inoculation.

[3] abbreviates: intravenous administration, read-out: ED50, IV.
Where [4] appears, read: oral administration, read-out: ED50, PO.

In brackets after ≈: the same amount, converted by molar mass. Read-outs that look alike come from different tables or passages of the source.

Take `CS[C@H]1O[C@H]([C@H](NC(=O)C2CC[C@H](CCCF)CCN2)[C@H](C)Cl)[C@H](O)[C@H](O)[C@H]1O` (stereo in doubt) [Example 5′, 5-(3-Fluoro-propyl)-azepane-2-carboxylic acid [2-chloro-1-(3,4,5-trihydroxy-6-methylsulfanyl-tetrahydro-pyran-2-yl)-propyl]-amide]: the MIC in the assay on Haemophilus influenzae was 0.25 µg/mL (≈ 0.547 µM); with Enterococcus faecalis, 0.06 µg/mL (≈ 0.131 µM); in the assay on Bacteroides fragilis, 0.25 µg/mL (≈ 0.547 µM); in the assay with Staphylococcus aureus, 0.03 µg/mL (≈ 0.0656 µM). The IC50 (as a rule, the midpoint of a concentration-inhibition curve) in assay [1] is 2410 nM. In addition, the “In vitro inhibition of E. coli transcription and translation compared with literature azepine compound VIII(18)” value in assay [1] was “markedly superior”. The “Efficacy in the murine S. aureus septicemia model relative to clindamycin” value in assay [2] is “three to greater than five fold better”. Further, the ED50 (as a rule, the dose at which the effect has come halfway, by size or by number of responders) in assay [2] (setting [3]) is 0.18 mg/kg; in assay [2] (setting [4]) it was 6.84 mg/kg. Besides, the “Efficacy in the murine S. aureus septicemia model by oral route” value in assay [2] is “demonstrated the potential for use of the compounds as orally administered therapeutic agents”.
Turning to `CS[C@H]1O[C@H]([C@H](NC(=O)C2CC[C@H](CCCCF)CCN2)C(C)C)[C@H](O)[C@H](O)[C@H]1O` (stereo in doubt) [Example 4′, 5-(4-Fluoro-butyl)-azepane-2-carboxylic acid [2-methyl-1-(3,4,5-trihydroxy-6-methylsulfanyl-tetrahydro-pyran-2-yl)-propyl]-amide], the MIC with Haemophilus influenzae came to 0.5 µg/mL (≈ 1.11 µM); in the assay on Enterococcus faecalis, 0.125 µg/mL (≈ 0.277 µM); in the assay on Bacteroides fragilis, 1 µg/mL (≈ 2.22 µM); in the assay with Staphylococcus aureus, 0.06 µg/mL (≈ 0.133 µM). For the same compound, 490 nM corresponded to half-maximal inhibition in assay [1] (IC50). Also, in assay [1], the “In vitro inhibition of E. coli transcription and translation compared with literature azepine compound VIII(18)” value is “markedly superior”. For the same compound, the “Efficacy in the murine S. aureus septicemia model relative to clindamycin” value in assay [2] was “three to greater than five fold better”. Besides, in assay [2] (setting [3]), the ED50 amounted to 0.28 mg/kg.
As for `CS[C@H]1O[C@H]([C@H](NC(=O)C2CC[C@H](CCCC#N)CCN2)[C@H](C)Cl)[C@H](O)[C@H](O)[C@H]1O` (stereo in doubt) [Example 7′, 5-(3-Cyano-propyl)-azepane-2-carboxylic acid [2-chloro-1-(3,4,5-trihydroxy-6-methylsulfanyl-tetrahydro-pyran-2-yl)-propyl]-amide], the MIC in the assay with Haemophilus influenzae turned out to be 0.5 µg/mL (≈ 1.08 µM); in the assay with Enterococcus faecalis it was 0.25 µg/mL (≈ 0.539 µM); in the assay on Bacteroides fragilis it was 4 µg/mL (≈ 8.62 µM); in the assay with Staphylococcus aureus it was 0.125 µg/mL (≈ 0.269 µM). The same compound yielded an IC50 in assay [1] of 320 nM. The “In vitro inhibition of E. coli transcription and translation compared with literature azepine compound VIII(18)” value in assay [1] is listed as “markedly superior”. The “Efficacy in the murine S. aureus septicemia model relative to clindamycin” value in assay [2] is “three to greater than five fold better”. For the same compound, the ED50 in assay [2] (setting [3]) is 0.29 mg/kg; in assay [2] (setting [4]), over 30 mg/kg.
As to `COCCC[C@@H]1CCN[C@H](C(=O)N[C@@H]([C@H]2O[C@H](SC)[C@H](O)[C@@H](O)[C@H]2O)[C@H](C)Cl)CC1` [Example 13′, 5-(3-Methoxy-propyl)-azepane-2-carboxylic acid [2-chloro-1-(3,4,5-trihydroxy-6-methylsulfanyl-tetrahydro-pyran-2-yl)-propyl]-amide], the MIC is 1 µg/mL (≈ 2.13 µM) in the assay with Haemophilus influenzae, 0.5 µg/mL (≈ 1.07 µM) with Enterococcus faecalis, 4 µg/mL (≈ 8.53 µM) with Bacteroides fragilis and 0.06 µg/mL (≈ 0.128 µM) with Staphylococcus aureus. Moreover, in assay [1], the IC50 is 830 nM. In addition, the “In vitro inhibition of E. coli transcription and translation compared with literature azepine compound VIII(18)” value in assay [1] was “markedly superior”. Further, the “Efficacy in the murine S. aureus septicemia model relative to clindamycin” value in assay [2] was “three to greater than five fold better”. The ED50 in assay [2] (setting [3]) was 0.28 mg/kg; in assay [2] (setting [4]) it was 6.84 mg/kg. In addition, the “Efficacy in the murine S. aureus septicemia model by oral route” value in assay [2] is reported as “demonstrated the potential for use of the compounds as orally administered therapeutic agents”.
Turning to `CS[C@H]1O[C@H]([C@H](NC(=O)C2CC[C@H](CCCCF)CCN2)[C@H](C)Cl)[C@H](O)[C@H](O)[C@H]1O` (stereo in doubt) [Example 3′, 5-(4-Fluoro-butyl)-azepane-2-carboxylic acid [2-chloro-1-(3,4,5-trihydroxy-6-methylsulfanyl-tetrahydro-pyran-2-yl)-propyl]-amide], the MIC came out at 0.25 µg/mL (≈ 0.531 µM) in the assay on Haemophilus influenzae, 0.06 µg/mL (≈ 0.127 µM) in the assay on Enterococcus faecalis, 0.5 µg/mL (≈ 1.06 µM) with Bacteroides fragilis and 0.03 µg/mL (≈ 0.0637 µM) in the assay on Staphylococcus aureus. Moreover, the IC50 in assay [1] is 190 nM. Further, in assay [1], the “In vitro inhibition of E. coli transcription and translation compared with literature azepine compound VIII(18)” value is listed as “markedly superior”. In assay [2], the “Efficacy in the murine S. aureus septicemia model relative to clindamycin” value is given as “three to greater than five fold better”. In addition, the ED50 in assay [2] (setting [3]) was found to be 0.32 mg/kg.
On to `CS[C@H]1O[C@H]([C@H](NC(=O)C2CC[C@H](CCCF)CCN2)C(C)C)[C@H](O)[C@H](O)[C@H]1O` (some centres unmarked) [Example 6′], for which the MIC with Haemophilus influenzae turned out to be 2 µg/mL (≈ 4.58 µM); with Enterococcus faecalis, 0.25 µg/mL (≈ 0.573 µM); in the assay on Bacteroides fragilis it was 1 µg/mL (≈ 2.29 µM); in the assay with Staphylococcus aureus, 0.06 µg/mL (≈ 0.137 µM). Further, the IC50 in assay [1] was found to be 760 nM. Further, the “In vitro inhibition of E. coli transcription and translation compared with literature azepine compound VIII(18)” value in assay [1] is recorded as “markedly superior”. Moreover, the “Efficacy in the murine S. aureus septicemia model relative to clindamycin” value in assay [2] is reported as “three to greater than five fold better”. Besides, the 50% effective dose (ED50) in assay [2] (setting [3]) turned out to be 0.28 mg/kg.
`CS[C@H]1O[C@H]([C@H](NC(=O)C2CC[C@H](CCCO)CCN2)[C@H](C)Cl)[C@H](O)[C@H](O)[C@H]1O` (stereo in doubt) [Example 2′, 5-(3-Hydroxy-propyl)-azepane-2-carboxylic acid [2-chloro-1-(3,4,5-trihydroxy-6-methylsulfanyl-tetrahydro-pyran-2-yl)-propyl]-amide]: the MIC stood at 0.5 µg/mL (≈ 1.1 µM) in the assay on Haemophilus influenzae, 1 µg/mL (≈ 2.2 µM) with Enterococcus faecalis, 4 µg/mL (≈ 8.79 µM) in the assay with Bacteroides fragilis and 0.5 µg/mL (≈ 1.1 µM) in the assay with Staphylococcus aureus. The IC50 in assay [1] was 400 nM. Moreover, the “In vitro inhibition of E. coli transcription and translation compared with literature azepine compound VIII(18)” value in assay [1] is on record as “markedly superior”.
